# Patent US20180251431A1 (VERTEX PHARMACEUTICALS INCORPORATED, priority 2016, published 2018)
# Tested on: HEK293 cells
# Experiment: HEK293 VLCFA-LPC IC50 determination (13C-labeled C26:0 LPC by UHPLC/MS)
# Format: cell-based, human
# Settings: Homo sapiens, HEK293, 48 h, average of one or more replicates; 13C-labeled C26:0 LPC, 48 hours; read-out: Average HEK293 IC50
# Procedure: HEK293 cells were treated with compounds, such as those listed in Tables A-E of Example 1, using the representative manual protocols described below. The protocols below were also adapted to a semi-automated protocol using standard methods in the art.
# Cell Culture Growth Conditions:
# HEK293 cells were maintained in FreeStyle F17 media (Gibco # A13835) supplemented with PenStrep (1%, Gibco #15070-063), Glutamax (2%, Gibco #35050-061), and Pluronic (0.1%, Gibco #24040-032) (“supplemented media”). Suspension cultures were grown in disposable Erlenmeyer flasks at about 120 rpm, 37° C., 5% CO2, and 80% humidity. Cell densities were kept between about 0.5 and 3 million cells per mL, in about 50-200 mL per flask.
# Treatment of Cells with Compounds Provided Herein:
# The cells were treated with compounds using either a total of 900 uL cell media volume (high-volume assay) or a total of 200 uL cell media volume (low-volume assay). In the high volume assay, 450 μL of supplemented media plus 13C-acetate (1.0 mg/mL, Sigma Aldrich #282014) were added to 0.5 μL of a compound (such as those in Tables A-E) in DMSO in a polypropylene v-bottom plate (Costar #3363) in 1 of 3 dilution schemes. The contents of each well were mixed and transferred to a sterile polypropylene deep-well v-bottom plate (Costar #3960). 450 μL of cultured HEK293 cells in supplemented media at a density of 1.0 million cells/mL was added to each well. In the low volume assay, 100 μL of supplemented media plus 13C-acetate (1.0 mg/mL, Sigma Aldrich #282014) were added to either 0.1 μL or 1.0 uL of a compound (such as those in Tables A-E) in DMSO in a polypropylene v-bottom plate (Costar #3363) in 1 of 3 dilution schemes. 100 μL of cultured HEK293 cells in supplemented media at a density of 1.0 million cells/mL was added to each well. The high volume and low volume plates were sealed with either AirPore Tape Sheets (Qiagen #19571) or Duetz plate covers to control evaporation and placed into a shaking incubator at 225 rpm, 37° C., 5% CO2, and 80% humidity for 48 hours. For both the high and low volume assays the 3 dilution schemes used were as follows:
# Following incubation, treated cells were harvested by centrifugation at 1690×g for 10 minutes. In the high volume assay 200 uL treated cells were transferred to a polypropylene v-bottom plate (Costar #3363) prior to centrifugation. In the low volume assay the incubation plate was centrifuged directly, without a transfer step. The supernatant was then discarded and the analytes were extracted using 1 of 2 different extraction schemes. In the first scheme, the cell pellet was visibly broken up by mixing the cell pellet up and down in 100 μL of hexane/isopropanol (60:40) 20 times. The resulting mixture was transferred to a 0.45 μm Durapore membrane (Millipore #MSH VN4510) atop a polypropylene v-bottom plate (Costar #3363) and filtered by centrifugation at 1690×g for 5 minutes. 120 μL of n-butanol containing 10 nM C13:0 lysophosphatidylcholine was added to the filtrate as an injection control standard, then the entire volume was transferred to a new Durapore membrane/v-bottom plate. In the second scheme, the cell pellet was visibly broken up by mixing the cell pellet up and down in 180 μL of methanol containing 10 nM C13:0 lysophosphatidylcholine 20 times. The resulting mixture was transferred to a 0.45 μm Durapore membrane (Millipore #MSH VN4510) atop a polypropylene v-bottom plate and filtered by centrifugation at 1690×g for 5 minutes. In both schemes, the plates were then sealed with pierceable capmats (Micronic MP53017) and stored at −20 OC until analyzed.
# UHPLC/Mass Spectrometry Readout:
# The filtered organic extraction was analyzed with a 1290 Agilent Infinity Series UHPLC coupled to an ABI Sciex QTrap 6500 mass spectrometer. […]
row,Compound,IC50 [nM]
1,"N#Cc1cc(F)cc(-n2ccc(NC(=O)C3(c4ccccc4F)CC3)n2)c1 [Compound 352, N-[1-(3-cyano-5-fluoro-phenyl)pyrazol-3-yl]-1-(2-fluorophenyl)cyclopropanecarboxamide]",> 5000
2,"O=C(Nc1ccn(-c2ccc(C(F)(F)F)nc2)n1)C1(c2ccccc2F)CC1 [Compound 315, 1-(2-fluorophenyl)-N-(1-(6-(trifluoromethyl)pyridin-3-yl)-1H-pyrazol-3-yl)cyclopropane-1-carboxamide]",> 5000
3,"O=C(Nc1ccn(-c2ccccc2)n1)C1(c2ccccc2)CC1(F)F (single isomer, unassigned) [Compound 366]",210
4,"O=C(Nc1ccn(-c2ccnc(F)c2)n1)C1(c2ccccc2)CC1(F)F (single isomer, unassigned) [Compound 368]",32

# Same assay, conditions: Homo sapiens, HEK293, HEK293 cells; average of one or more replicates; read-out: Average HEK293 IC50
row,Compound,IC50 [nM]
1,"COc1cc(F)ccc1-n1ccc(NC(=O)C2(c3ccccc3F)CC2)n1 [Compound 429, N-[1-(4-fluoro-2-methoxy-phenyl)pyrazol-3-yl]-1-(2-fluorophenyl)cyclopropanecarboxamide]",> 5000
2,"O=C(Nc1ccn(-c2ccncc2)n1)C1(c2ccccc2)CC1 [Compound 100, 1-phenyl-N-[1-(4-pyridyl)pyrazol-3-yl]cyclopropanecarboxamide]",33
3,"Cc1cccc(CC(=O)Nc2ccn(-c3ccccc3)n2)c1 [Compound 43, 2-(m-tolyl)-N-(1-phenylpyrazol-3-yl)acetamide]",1900
4,"O=C(Cc1ccccc1F)Nc1ccn(-c2nccs2)n1 [Compound 90, 2-(2-fluorophenyl)-N-(1-thiazol-2-ylpyrazol-3-yl)acetamide]",350
5,"O=C(Cc1ccccc1F)Nc1ccn(-c2ccncn2)n1 [Compound 208, 2-(2-fluorophenyl)-N-(1-pyrimidin-4-ylpyrazol-3-yl)acetamide]",2300
6,"Cc1cnc(C2(C(=O)Nc3ccn(-c4cncc(F)c4)n3)CC2)c(F)c1 [Compound 497, 1-(3-fluoro-5-methyl-2-pyridyl)-N-[1-(5-fluoro-3-pyridyl)pyrazol-3-yl]cyclopropanecarboxamide]",2100
7,"Cc1ncccc1-n1ccc(NC(=O)C2(c3ccccc3F)CC2)n1 [Compound 471, 1-(2-fluorophenyl)-N-[1-(2-methyl-3-pyridyl)pyrazol-3-yl]cyclopropanecarboxamide]",> 5000
8,"Cn1cncc1-n1ccc(NC(=O)C2(c3ccccc3F)CC2)n1 [Compound 426, 1-(2-fluorophenyl)-N-[1-(3-methylimidazol-4-yl)pyrazol-3-yl]cyclopropanecarboxamide]",> 2000
9,"Cn1cnc(-n2ccc(NC(=O)C3(c4ccccc4F)CC3)n2)n1 [Compound 425, 1-(2-fluorophenyl)-N-[1-(1-methyl-1,2,4-triazol-3-yl)pyrazol-3-yl]cyclopropanecarboxamide]",> 5000
10,"O=C(Nc1ccn(-c2ccnc(F)c2)n1)C1(c2c(F)cccc2Cl)CC1 [Compound 274, 1-(2-chloro-6-fluorophenyl)-N-(1-(2-fluoropyridin-4-yl)-1H-pyrazol-3-yl)cyclopropane-1-carboxamide]",37
11,"O=C(Nc1ccn(-c2ccnc(F)c2)n1)C1(c2ccccc2Cl)CC1 [Compound 251, 1-(2-chlorophenyl)-N-[1-(2-fluoro-4-pyridyl)pyrazol-3-yl]cyclopropanecarboxamide]",110
12,"COc1ccc(C2(C(=O)Nc3ccn(-c4ccccc4)n3)CC2)cc1 [Compound 25, 1-(4-methoxyphenyl)-N-(1-phenylpyrazol-3-yl)cyclopropanecarboxamide]",3600
13,"O=C(Nc1ccn(-c2cc(F)ncc2F)n1)C1(c2ccccc2F)CC1 [Compound 116, N-[1-(2,5-difluoro-4-pyridyl)pyrazol-3-yl]-1-(2-fluorophenyl)cyclopropanecarboxamide]",76
14,"O=C(Cc1cccs1)Nc1ccn(-c2ccccc2)n1 [Compound 37, N-(1-phenylpyrazol-3-yl)-2-(2-thienyl)acetamide]",64
15,"O=C(Nc1ccn(-c2cccnc2)n1)C1(c2ccccc2F)CC1 [Compound 214, 1-(2-fluorophenyl)-N-[1-(3-pyridyl)pyrazol-3-yl]cyclopropanecarboxamide]",45
16,"O=C(Nc1ccn(-c2cccnc2)n1)C1(c2ccccc2)CC1 [Compound 234, 1-phenyl-N-[1-(3-pyridyl)pyrazol-3-yl]cyclopropanecarboxamide]",29
17,"O=C(Cc1ccccc1)Nc1ccn(-c2ccc(F)c(F)c2)n1 [Compound 189, N-[1-(3,4-difluorophenyl)pyrazol-3-yl]-2-phenyl-acetamide]",230
18,"O=C(Cc1ccccc1)Nc1ccn(-c2ccncc2)n1 [Compound 99, 2-phenyl-N-[1-(4-pyridyl)pyrazol-3-yl]acetamide]",760
19,"O=C(Nc1ccn(-c2ccccc2)n1)C1(c2ccccc2)CC1(Cl)Cl (stereo not shown) [Compound 141, 2,2-dichloro-1-phenyl-N-(1-phenylpyrazol-3-yl)cyclopropanecarboxamide]",340
20,"O=C(Nc1ccn(-c2ccncc2)n1)C1(c2cccs2)CC1 [Compound 482, N-[1-(4-pyridyl)pyrazol-3-yl]-1-(2-thienyl)cyclopropanecarboxamide]",39
21,"COc1cc(-n2ccc(NC(=O)C3(c4ncccc4F)CC3C)n2)ccn1 (stereo not shown) [Compound 510, 1-(3-fluoro-2-pyridyl)-N-[1-(2-methoxy-4-pyridyl)pyrazol-3-yl]-2-methyl-cyclopropanecarboxamide]",670
22,"O=C(Nc1ccn(-c2ccnc(F)c2)n1)C1(c2cccnc2)CC1 [Compound 222, N-[1-(2-fluoro-4-pyridyl)pyrazol-3-yl]-1-(3-pyridyl)cyclopropanecarboxamide]",2000
23,"O=C(Cc1ccccc1F)Nc1ccn(-c2ccc(F)cc2)n1 [Compound 183, 2-(2-fluorophenyl)-N-[1-(4-fluorophenyl)pyrazol-3-yl]acetamide]",170
24,"O=C(Nc1ccn(-c2ccnc(C(F)F)c2)n1)C1(c2ccccc2F)CC1 [Compound 396, N-[1-[2-(difluoromethyl)-4-pyridyl]pyrazol-3-yl]-1-(2-fluorophenyl)cyclopropanecarboxamide]",> 5000
25,"CCOc1ccc(-n2ccc(NC(=O)C3(c4ccccc4F)CC3)n2)cn1 [Compound 430, N-[1-(6-ethoxy-3-pyridyl)pyrazol-3-yl]-1-(2-fluorophenyl)cyclopropanecarboxamide]",> 5000
26,"O=C(Nc1ccn(-c2ccccc2)n1)C1(c2cc(F)cc(C(F)(F)F)c2)CC1 [Compound 29, 1-[3-fluoro-5-(trifluoromethyl)phenyl]-N-(1-phenylpyrazol-3-yl)cyclopropanecarboxamide]",1900
27,"O=C(Cc1cc(F)c(F)cc1F)Nc1ccn(-c2ccccc2)n1 [Compound 75, N-(1-phenylpyrazol-3-yl)-2-(2,4,5-trifluorophenyl)acetamide]",> 2000
28,"O=C(Nc1ccn(-c2ccccc2)n1)C1(c2cccc(F)c2)CC1 [Compound 21, 1-(3-fluorophenyl)-N-(1-phenylpyrazol-3-yl)cyclopropanecarboxamide]",150
29,"O=C(Nc1ccn(-c2ccnc(F)c2)n1)C1(c2ccccc2)CC1(Cl)Cl (stereo not shown) [Compound 147, 2,2-dichloro-N-[1-(2-fluoro-4-pyridyl)pyrazol-3-yl]-1-phenyl-cyclopropanecarboxamide]",280
30,"O=C(Nc1ccn(-c2cccc(Cl)c2)n1)C1(c2ccccc2)CC1(F)F (racemic) [Compound 421, N-(1-(3-chlorophenyl)-1H-pyrazol-3-yl)-2,2-difluoro-1-phenylcyclopropane-1-carboxamide]",470
